Measurements: patent US11564969B2, “Immunorhelin compounds for intracellular infections” (ISR IMMUNE SYSTEM REGULATION HOLDING AB (PUBL), priority 2017, dated 2023)
Blank lines part the entries; values can stand above or below the molecule they belong to. Square brackets hold non-standard residues; d marks the D form. Peptide text beside a SMILES is read from it. dHis(τ-Bn) = N[C@H](Cc1cn(Cc2ccccc2)cn1)C(=O)O; pGlu = O=C1CC[C@@H](C(=O)O)N1

Assays:
GnRHR = molecular target: T1, GnRHR (Homo sapiens, UniProt P30968); settings: 1000.0
T1 sequence (P30968 1-328): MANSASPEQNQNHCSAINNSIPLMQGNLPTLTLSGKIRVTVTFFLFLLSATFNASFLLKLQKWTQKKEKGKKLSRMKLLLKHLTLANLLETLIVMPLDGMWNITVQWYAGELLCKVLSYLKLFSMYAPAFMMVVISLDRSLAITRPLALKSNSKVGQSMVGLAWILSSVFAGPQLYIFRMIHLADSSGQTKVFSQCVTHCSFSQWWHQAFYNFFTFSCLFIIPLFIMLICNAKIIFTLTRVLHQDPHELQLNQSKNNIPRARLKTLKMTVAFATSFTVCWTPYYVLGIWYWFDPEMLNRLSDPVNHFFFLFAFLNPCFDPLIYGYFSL

[1] = Solubility analysis in PBS (Analysis Method B); format: physicochemical; settings: pH 7.4
Description: The solubility of compounds of the invention was tested as described in the general methods. Solubility was then graded according to a rating between 1 to 5, where 1 is most soluble and 5 is least soluble.

CD4+ and CD8+ T cells = assay: MHC class I expression on T cells after stimulation of PBMCs, flow cytometry; format: cell-based, human; settings: PBMCs from healthy donor, with IL-2, 72 hours
Description: FIG. 1: Expression of MHC class I after stimulation of T cells with increasing concentrations of GnRH II. PBMCs from a healthy donor was stimulated with GnRH II and IL-2 for 72 hours. Data points represent mean fluorescent intensity of MCH class I expression on CD4^+ T cells (blue triangles) or CD8^+ T cells (black squares) measured with flow cytometry. Human peripheral blood mononuclear cells (PBMCs) were purified from healthy donors with Ficoll-Hypaque density centrifugation. Cells were cultured in RPMI-1640 medium (Invitrogen) supplemented with 10% fetal bovine serum, 100 μg/mL ampicilin and 100 μg/mL streptomycin for 24-72 hours in 37° C., 5% CO2. Cells were stimulated with a compound according to the invention and analysed for expression of cell specific surface markers and […] (monoclonal antibodies from BD Pharmingen) with flow cytomtery.

SMILES: CCNC(=O)[C@@H]1CCCN1C(=O)[C@H](CCCNC(=N)N)NC(=O)[C@H](Cc1c[nH]c2ccccc12)NC(=O)[C@@H](CC(C)C)NC(=O)[C@H](Cc1c[nH]cn1)NC(=O)[C@H](CO)NC(=O)[C@H](Cc1c[nH]c2ccccc12)NC(=O)[C@H](Cc1c[nH]cn1)NC(=O)[C@@H]1CCC(=O)N1 [Compound 47, pGlu-His-Trp-Ser-His-D-Leu-Trp-Arg-Pro-NHEt] ([pGlu]HWSH[dL]WRP-NHEt)
- GNRHR Stimulation at 1 μM (GnRHR): 119 percentage
- Solubility grading [1]: 1

SMILES: CCNC(=O)[C@@H]1CCCN1C(=O)[C@H](Cc1ccc(O)cc1)NC(=O)[C@H](CC(C)C)NC(=O)[C@@H](CC(C)C)NC(=O)[C@H](Cc1c[nH]cn1)NC(=O)[C@H](CO)NC(=O)[C@H](Cc1c[nH]c2ccccc12)NC(=O)[C@H](Cc1c[nH]cn1)NC(=O)[C@@H]1CCC(=O)N1 [Compound 48, pGlu-His-Trp-Ser-His-D-Leu-Leu-Tyr-Pro-NHEt] ([pGlu]HWSH[dL]LYP-NHEt)
- GNRHR Stimulation at 1 μM (GnRHR): 118 percentage
- Solubility grading [1]: 2

SMILES: CCNC(=O)[C@@H]1CCCN1C(=O)[C@H](Cc1ccc(O)cc1)NC(=O)[C@H](Cc1c[nH]c2ccccc12)NC(=O)[C@@H](CC(C)C)NC(=O)[C@H](Cc1ccc(O)cc1)NC(=O)[C@H](CO)NC(=O)[C@H](Cc1c[nH]c2ccccc12)NC(=O)[C@H](Cc1c[nH]cn1)NC(=O)[C@@H]1CCC(=O)N1 [Compound 49, pGlu-His-Trp-Ser-Tyr-D-Leu-Trp-Tyr-Pro-NHEt] ([pGlu]HWSY[dL]WYP-NHEt)
- GNRHR Stimulation at 1 μM (GnRHR): 77 percentage
- Solubility grading [1]: 4

SMILES: CCNC(=O)[C@@H]1CCCN1C(=O)[C@H](Cc1ccc(O)cc1)NC(=O)[C@H](Cc1c[nH]c2ccccc12)NC(=O)[C@@H](CC(C)C)NC(=O)[C@H](Cc1c[nH]cn1)NC(=O)[C@H](CO)NC(=O)[C@H](Cc1c[nH]c2ccccc12)NC(=O)[C@H](Cc1c[nH]cn1)NC(=O)[C@@H]1CCC(=O)N1 [Compound 50, pGlu-His-Trp-Ser-His-D-Leu-Trp-Tyr-Pro-NHEt] ([pGlu]HWSH[dL]WYP-NHEt)
- GNRHR Stimulation at 1 μM (GnRHR): 105 percentage
- Solubility grading [1]: 1

SMILES: CCNC(=O)[C@@H]1CCCN1C(=O)[C@H](CCCNC(=N)N)NC(=O)[C@H](CC(C)C)NC(=O)[C@@H](Cc1cn(Cc2ccccc2)cn1)NC(=O)[C@H](Cc1c[nH]cn1)NC(=O)[C@H](CO)NC(=O)[C@H](Cc1c[nH]c2ccccc12)NC(=O)[C@H](Cc1c[nH]cn1)NC(=O)[C@@H]1CCC(=O)N1 [Compound 56, pGlu-His-Trp-Ser-His-D-Bhi-Leu-Arg-Pro-NHEt] ([pGlu]HWSH[dHis(τ-Bn)]LRP-NHEt)
- GNRHR Stimulation at 1 μM (GnRHR): 96 percentage
- Solubility grading [1]: 1

SMILES: CCNC(=O)[C@@H]1CCCN1C(=O)[C@H](Cc1ccc(O)cc1)NC(=O)[C@H](CC(C)C)NC(=O)[C@@H](Cc1cn(Cc2ccccc2)cn1)NC(=O)[C@H](Cc1ccc(O)cc1)NC(=O)[C@H](CO)NC(=O)[C@H](Cc1c[nH]c2ccccc12)NC(=O)[C@H](Cc1c[nH]cn1)NC(=O)[C@@H]1CCC(=O)N1 [Compound 59, pGlu-His-Trp-Ser-Tyr-D-Bhi-Leu-Tyr-Pro-NHEt] ([pGlu]HWSY[dHis(τ-Bn)]LYP-NHEt)
- GNRHR Stimulation at 1 μM (GnRHR): 85 percentage
- Solubility grading [1]: 4

SMILES: CCNC(=O)[C@@H]1CCCN1C(=O)[C@H](CCCNC(=N)N)NC(=O)[C@H](Cc1c[nH]c2ccccc12)NC(=O)[C@@H](Cc1cn(Cc2ccccc2)cn1)NC(=O)[C@H](Cc1c[nH]cn1)NC(=O)[C@H](CO)NC(=O)[C@H](Cc1c[nH]c2ccccc12)NC(=O)[C@H](Cc1c[nH]cn1)NC(=O)[C@@H]1CCC(=O)N1 [Compound 60, pGlu-His-Trp-Ser-His-D-Bhi-Trp-Arg-Pro-NHEt] ([pGlu]HWSH[dHis(τ-Bn)]WRP-NHEt)
- GNRHR Stimulation at 1 μM (GnRHR): 102 percentage
- Solubility grading [1]: 2

SMILES: CCNC(=O)[C@@H]1CCCN1C(=O)[C@H](Cc1ccc(O)cc1)NC(=O)[C@H](CC(C)C)NC(=O)[C@@H](Cc1cn(Cc2ccccc2)cn1)NC(=O)[C@H](Cc1c[nH]cn1)NC(=O)[C@H](CO)NC(=O)[C@H](Cc1c[nH]c2ccccc12)NC(=O)[C@H](Cc1c[nH]cn1)NC(=O)[C@@H]1CCC(=O)N1 [Compound 61, pGlu-His-Trp-Ser-His-D-Bhi-Leu-Tyr-Pro-NHEt] ([pGlu]HWSH[dHis(τ-Bn)]LYP-NHEt)
- GNRHR Stimulation at 1 μM (GnRHR): 112 percentage
- Solubility grading [1]: 3

SMILES: NC(=O)CNC(=O)[C@@H]1CCCN1C(=O)[C@H](Cc1ccc(O)cc1)NC(=O)[C@H](Cc1c[nH]c2ccccc12)NC(=O)CNC(=O)[C@H](Cc1c[nH]cn1)NC(=O)[C@H](CO)NC(=O)[C@H](Cc1c[nH]c2ccccc12)NC(=O)[C@H](Cc1c[nH]cn1)NC(=O)[C@@H]1CCC(=O)N1 [GnRH II] ([pGlu]HWSHGWYPG-NH2)
- MHC class I expression on T cells (CD4+ and CD8+ T cells): directly activates these cells

Other lines, results leading:

- GNRHR Stimulation at 1 μM (GnRHR): 77 percentage
- Solubility grading [1]: 5
SMILES: CCNC(=O)[C@@H]1CCCN1C(=O)[C@H](Cc1ccc(O)cc1)NC(=O)[C@H](Cc1c[nH]c2ccccc12)NC(=O)[C@@H](Cc1cn(Cc2ccccc2)cn1)NC(=O)[C@H](Cc1ccc(O)cc1)NC(=O)[C@H](CO)NC(=O)[C@H](Cc1c[nH]c2ccccc12)NC(=O)[C@H](Cc1c[nH]cn1)NC(=O)[C@@H]1CCC(=O)N1 [Compound 62, pGlu-His-Trp-Ser-Tyr-D-Bhi-Trp-Tyr-Pro-NHEt] ([pGlu]HWSY[dHis(τ-Bn)]WYP-NHEt)

- GNRHR Stimulation at 1 μM (GnRHR): 77 percentage
- Solubility grading [1]: 5
SMILES: CCNC(=O)[C@@H]1CCCN1C(=O)[C@H](Cc1ccc(O)cc1)NC(=O)[C@H](Cc1c[nH]c2ccccc12)NC(=O)[C@@H](Cc1cn(Cc2ccccc2)cn1)NC(=O)[C@H](Cc1c[nH]cn1)NC(=O)[C@H](CO)NC(=O)[C@H](Cc1c[nH]c2ccccc12)NC(=O)[C@H](Cc1c[nH]cn1)NC(=O)[C@@H]1CCC(=O)N1 [Compound 63, pGlu-His-Trp-Ser-His-D-Bhi-Trp-Tyr-Pro-NHEt] ([pGlu]HWSH[dHis(τ-Bn)]WYP-NHEt)

- GNRHR Stimulation at 1 μM (GnRHR): 50 percentage
- Solubility grading [1]: 5
SMILES: NC(=O)CNC(=O)[C@@H]1CCCN1C(=O)[C@H](Cc1ccc(O)cc1)NC(=O)[C@H](Cc1c[nH]c2ccccc12)NC(=O)[C@@H](Cc1c[nH]c2ccccc12)NC(=O)[C@H](Cc1ccc(O)cc1)NC(=O)[C@H](CO)NC(=O)[C@H](Cc1c[nH]c2ccccc12)NC(=O)[C@H](Cc1c[nH]cn1)NC(=O)[C@@H]1CCC(=O)N1 [Compound 64, pGlu-His-Trp-Ser-Tyr-D-Trp-Trp-Tyr-Pro-Gly-amide] ([pGlu]HWSY[dW]WYPG-NH2)

- GNRHR Stimulation at 1 μM (GnRHR): 72 percentage
- Solubility grading [1]: 4
SMILES: NC(=O)CNC(=O)[C@@H]1CCCN1C(=O)[C@H](Cc1ccc(O)cc1)NC(=O)[C@H](Cc1c[nH]c2ccccc12)NC(=O)[C@@H](Cc1c[nH]c2ccccc12)NC(=O)[C@H](Cc1c[nH]cn1)NC(=O)[C@H](CO)NC(=O)[C@H](Cc1c[nH]c2ccccc12)NC(=O)[C@H](Cc1c[nH]cn1)NC(=O)[C@@H]1CCC(=O)N1 [Compound 65, pGlu-His-Trp-Ser-His-D-Trp-Trp-Tyr-Pro-Gly-amide] ([pGlu]HWSH[dW]WYPG-NH2)

- GNRHR Stimulation at 1 μM (GnRHR): 83 percentage
- Solubility grading [1]: 5
SMILES: N=C(N)NCCC[C@H](NC(=O)[C@H](Cc1c[nH]c2ccccc12)NC(=O)[C@@H](Cc1c[nH]c2ccccc12)NC(=O)[C@H](Cc1ccc(O)cc1)NC(=O)[C@H](CO)NC(=O)[C@H](Cc1c[nH]c2ccccc12)NC(=O)[C@H](Cc1c[nH]cn1)NC(=O)[C@@H]1CCC(=O)N1)C(=O)N1CCC[C@H]1C(=O)NCC(N)=O [Compound 66, pGlu-His-Trp-Ser-Tyr-D-Trp-Trp-Arg-Pro-Gly-amide] ([pGlu]HWSY[dW]WRPG-NH2)

- GNRHR Stimulation at 1 μM (GnRHR): 117 percentage
- Solubility grading [1]: 1
SMILES: CCNC(=O)[C@@H]1CCCN1C(=O)[C@H](CCCNC(=N)N)NC(=O)[C@H](Cc1c[nH]c2ccccc12)NC(=O)[C@@H](Cc1cn(Cc2ccccc2)cn1)NC(=O)[C@H](Cc1ccc(O)cc1)NC(=O)[C@H](CO)NC(=O)[C@H](Cc1c[nH]c2ccccc12)NC(=O)[C@H](Cc1c[nH]cn1)NC(=O)[C@@H]1CCC(=O)N1 [Compound 67, pGlu-His-Trp-Ser-Tyr-D-Bhi-Trp-Arg-Pro-NHEt] ([pGlu]HWSY[dHis(τ-Bn)]WRP-NHEt)

- GNRHR Stimulation at 1 μM (GnRHR): 86 percentage
- Solubility grading [1]: 1
SMILES: CC(C)C[C@H](NC(=O)[C@@H](Cc1c[nH]c2ccccc12)NC(=O)[C@H](Cc1c[nH]cn1)NC(=O)[C@H](CO)NC(=O)[C@H](Cc1c[nH]c2ccccc12)NC(=O)[C@H](Cc1c[nH]cn1)NC(=O)[C@@H]1CCC(=O)N1)C(=O)N[C@@H](CCCNC(=N)N)C(=O)N1CCC[C@H]1C(=O)NCC(N)=O [Compound 68, pGlu-His-Trp-Ser-His-D-Trp-Leu-Arg-Pro-Gly-amide] ([pGlu]HWSH[dW]LRPG-NH2)
